Starred links: 1 amine or outer side, 2 acyl side, 3 side chain; linkers in the order of their positions; H or OH if unused. Non-standard residues stand in square brackets, D forms with d. Residues, ends and D or L forms follow the SMILES beside them. *: point of attachment. Phe(4-(4-Ac-piperazinyl)) = CC(=O)N1CCN(c2ccc(C[C@H](N)C(=O)O)cc2)CC1; dPro(4R-(4-pyridylmethyl)) = O=C(O)[C@H]1C[C@@H](Cc2ccncc2)CN1; dPro(3S-(4-Br-benzyl)) = O=C(O)[C@@H]1NCC[C@@H]1Cc1ccc(Br)cc1; Trp(βS-Me,4-F) = C[C@@H](c1c[nH]c2cccc(F)c12)[C@H](N)C(=O)O; Bip(4'-COOH) = N[C@@H](Cc1ccc(-c2ccc(C(=O)O)cc2)cc1)C(=O)O; Ala(1-bicyclo(1.1.1)pentyl) = N[C@@H](CC12CC(C1)C2)C(=O)O; dPro(4R-Bzl(4-F)) = O=C(O)[C@H]1C[C@@H](Cc2ccc(F)cc2)CN1; dPro(3S-(4-F-Bn)) = O=C(O)[C@@H]1NCC[C@@H]1Cc1ccc(F)cc1; Phe(2-Cl,4-COOH) = N[C@@H](Cc1ccc(C(=O)O)cc1Cl)C(=O)O; 1Nal(3S-Me) = C[C@@H](c1cccc2ccccc12)[C@H](N)C(=O)O; X41 = O=C([C@@H](N[*:1])[C@@H](O)c1ccncc1)[*:2]; Ala(pyrimidin-5-yl) = N[C@@H](Cc1cncnc1)C(=O)O; Phe(4-COOH) = N[C@@H](Cc1ccc(C(=O)O)cc1)C(=O)O; Bip = N[C@@H](Cc1ccc(-c2ccccc2)cc1)C(=O)O; Pro(cis-4-F) = O=C(O)[C@@H]1C[C@H](F)CN1; Ala(4-THP) = N[C@@H](CC1CCOCC1)C(=O)O; AEF = NCCOc1ccc(C[C@H](N)C(=O)O)cc1; hTyr = N[C@@H](CCc1ccc(O)cc1)C(=O)O; cisHyp = O=C(O)[C@@H]1C[C@H](O)CN1; d(αMeD) = C[C@@](N)(CC(=O)O)C(=O)O; h4Pal = N[C@@H](CCc1ccncc1)C(=O)O; d(αMeK) = C[C@@](N)(CCCCN)C(=O)O; 4Pal = N[C@@H](Cc1ccncc1)C(=O)O; d(αMeS) = C[C@@](N)(CO)C(=O)O; αMeK = C[C@](N)(CCCCN)C(=O)O; Orn = NCCC[C@H](N)C(=O)O; Dab = NCC[C@H](N)C(=O)O; Aib = CC(C)(N)C(=O)O; Bz = O=C(c1ccccc1)*
The molecules below were run against T1, IL-1β (Homo sapiens, UniProt P01584) (assay: IL-6 assay in MRC5 cells: inhibition of IL-1β induced IL-6 secretion (AlphaLISA)). Conditions: inhibition of IL-1β induced IL-6 secretion in MRC5 cells; compound pre-incubated 1 hour with recombinant human IL-1β; read-out: MRC5 IC50.
T1 construct: purchased BioLegend 579404
Type: cell-based
In short: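 Compound was pre-incubated 1 h at ambient temperature with recombinant human IL-1β at 2λ EC80 before adding human lung fibroblast MRC5 cells (3000/well) in EMEM with 0.025% BSA. After overnight culture at 37 °C, 5% CO2, secreted IL-6 in conditioned medium was measured by AlphaLISA; IC50 from 4-parameter logistic fits.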

T1 sequence (P01584 117-269): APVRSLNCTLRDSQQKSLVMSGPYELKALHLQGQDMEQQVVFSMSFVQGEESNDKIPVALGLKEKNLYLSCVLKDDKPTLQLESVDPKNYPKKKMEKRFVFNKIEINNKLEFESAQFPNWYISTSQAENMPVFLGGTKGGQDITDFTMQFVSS

| IC50 [nM] | SMILES |
| --- | --- |
| 0.012 | C[C@@H](c1c[nH]c2cccc(F)c12)[C@@H]1NC(=O)[C@@H]2C[C@H](F)CN2C(=O)CNC(=O)[C@H](Cc2ccc(C(=O)O)cc2)NC(=O)[C@H](Cc2ccncc2)NC(=O)[C@H](Cc2ccc(-c3ccc(C(=O)O)cc3)cc2)NC(=O)[C@H]2C[C@@H](Cc3ccncc3)CN2C(=O)CNC(=O)[C@H](CCN)NC(=O)[C@H](CCC(N)=O)NC(=O)[C@H](CCc2ccc(O)cc2)NC(=O)[C@@](C)(CC(=O)O)NC(=O)[C@H](Cc2c[nH]c3ccccc23)NC(=O)[C@H](CO)NC(=O)C(C)(C)NC1=O [Example 256] (cyclo([Bip(4'-COOH)][4Pal][Phe(4-COOH)]G[Pro(cis-4-F)][Trp(βS-Me,4-F)][Aib]SW[d(αMeD)][hTyr]Q[Dab]G[dPro(4R-(4-pyridylmethyl))])) |
| 0.017 | C[C@@H](c1c[nH]c2cccc(F)c12)[C@@H]1NC(=O)[C@@H]2C[C@H](O)CN2C(=O)CNC(=O)[C@H](Cc2ccc(C(=O)O)cc2)NC(=O)[C@H](Cc2ccncc2)NC(=O)[C@H](Cc2ccc(-c3ccccc3)cc2)NC(=O)[C@H]2C[C@@H](Cc3ccncc3)CN2C(=O)CNC(=O)[C@H](CCN)NC(=O)[C@H](CCC(N)=O)NC(=O)[C@H](Cc2cncnc2)NC(=O)[C@@](C)(CC(=O)O)NC(=O)[C@H](Cc2c[nH]c3ccccc23)NC(=O)[C@H](CO)NC(=O)C(C)(C)NC1=O [Example 264] (cyclo([Bip][4Pal][Phe(4-COOH)]G[cisHyp][Trp(βS-Me,4-F)][Aib]SW[d(αMeD)][Ala(pyrimidin-5-yl)]Q[Dab]G[dPro(4R-(4-pyridylmethyl))])) |
| 0.018 | C[C@@H](c1c[nH]c2cccc(F)c12)[C@@H]1NC(=O)[C@@H]2C[C@H](F)CN2C(=O)CNC(=O)[C@H](Cc2ccc(C(=O)O)cc2)NC(=O)[C@H](Cc2ccncc2)NC(=O)[C@H](Cc2ccc(-c3ccc(C(=O)O)cc3)cc2)NC(=O)[C@H]2C[C@@H](Cc3ccc(F)cc3)CN2C(=O)CNC(=O)[C@H](CCN)NC(=O)[C@H](CCC(N)=O)NC(=O)[C@H]([C@@H](O)c2ccncc2)NC(=O)C(C)(C)NC(=O)[C@H](Cc2c[nH]c3ccccc23)NC(=O)[C@H](CO)NC(=O)C(C)(C)NC1=O [Example 272] (cyclo([Bip(4'-COOH)][4Pal][Phe(4-COOH)]G[Pro(cis-4-F)][Trp(βS-Me,4-F)][Aib]SW[Aib][X41]Q[Dab]G[dPro(4R-Bzl(4-F))])) |

Same assay, conditions: inhibition of IL-1β induced IL-6 secretion in MRC5 cells; read-out: MRC5 IC50

| IC50 [nM] | SMILES |
| --- | --- |
| 0.019 | C[C@@H](c1cccc2ccccc12)[C@@H]1NC(=O)[C@@H]2C[C@H](F)CN2C(=O)CNC(=O)[C@H](Cc2ccc(C(=O)O)cc2)NC(=O)[C@H](Cc2ccncc2)NC(=O)[C@H](Cc2ccc(-c3ccc(C(=O)O)cc3)cc2)NC(=O)[C@H]2[C@@H](Cc3ccc(Br)cc3)CCN2C(=O)CNC(=O)[C@H](CCN)NC(=O)[C@H](CCC(N)=O)NC(=O)[C@H](Cc2cncnc2)NC(=O)C(C)(C)NC(=O)[C@H](Cc2c[nH]c3ccccc23)NC(=O)[C@H](CCC(=O)O)NC(=O)C(C)(C)NC1=O [Example 153] (cyclo([Bip(4'-COOH)][4Pal][Phe(4-COOH)]G[Pro(cis-4-F)][1Nal(3S-Me)][Aib]EW[Aib][Ala(pyrimidin-5-yl)]Q[Dab]G[dPro(3S-(4-Br-benzyl))])) |
| 0.031 | C[C@@H](c1c[nH]c2cccc(F)c12)[C@@H]1NC(=O)[C@@H]2C[C@H](F)CN2C(=O)CNC(=O)[C@H](Cc2ccc(C(=O)O)cc2)NC(=O)[C@H](CC23CC(C2)C3)NC(=O)[C@H](Cc2ccc(-c3ccc(C(=O)O)cc3)cc2)NC(=O)[C@H]2C[C@@H](Cc3ccc(F)cc3)CN2C(=O)CNC(=O)[C@H](CCN)NC(=O)[C@H](CCC(N)=O)NC(=O)[C@H](Cc2cncnc2)NC(=O)[C@](C)(CCCCN)NC(=O)[C@H](Cc2c[nH]c3ccccc23)NC(=O)[C@H](CO)NC(=O)C(C)(C)NC1=O [Example 144] (cyclo([Bip(4'-COOH)][Ala(1-bicyclo(1.1.1)pentyl)][Phe(4-COOH)]G[Pro(cis-4-F)][Trp(βS-Me,4-F)][Aib]SW[αMeK][Ala(pyrimidin-5-yl)]Q[Dab]G[dPro(4R-Bzl(4-F))])) |
| 0.015 | CC(=O)NCCOc1ccc(C[C@@H]2NC(=O)[C@H]3[C@@H](Cc4ccc(F)cc4)CCN3C(=O)CNC(=O)[C@H](CCN)NC(=O)[C@H](CCC(N)=O)NC(=O)[C@H](CC3CCOCC3)NC(=O)[C@@](C)(CC(=O)O)NC(=O)[C@H](Cc3c[nH]c4ccccc34)NC(=O)[C@H](CO)NC(=O)C(C)(C)NC(=O)[C@H]([C@@H](C)c3c[nH]c4cccc(F)c34)NC(=O)[C@@H]3C[C@H](F)CN3C(=O)CNC(=O)[C@H](Cc3ccc(C(=O)O)cc3)NC(=O)[C@H](CC34CC(C3)C4)NC2=O)cc1 [Example 370] (cyclo([AEF](Ac)[Ala(1-bicyclo(1.1.1)pentyl)][Phe(4-COOH)]G[Pro(cis-4-F)][Trp(βS-Me,4-F)][Aib]SW[d(αMeD)][Ala(4-THP)]Q[Dab]G[dPro(3S-(4-F-Bn))])) |
| 0.02 | CC(=O)N1CCN(c2ccc(C[C@@H]3NC(=O)[C@H]4C[C@@H](Cc5ccncc5)CN4C(=O)CNC(=O)[C@H](CCN)NC(=O)[C@H](CCC(N)=O)NC(=O)[C@H](Cc4cncnc4)NC(=O)[C@@](C)(CO)NC(=O)[C@H](Cc4c[nH]c5ccccc45)NC(=O)[C@H](CO)NC(=O)C(C)(C)NC(=O)[C@H]([C@@H](C)c4c[nH]c5cccc(F)c45)NC(=O)[C@@H]4C[C@H](F)CN4C(=O)CNC(=O)[C@H](Cc4ccc(C(=O)O)cc4)NC(=O)[C@H](Cc4ccncc4)NC3=O)cc2)CC1 [Example 350] (cyclo([Phe(4-(4-Ac-piperazinyl))][4Pal][Phe(4-COOH)]G[Pro(cis-4-F)][Trp(βS-Me,4-F)][Aib]SW[d(αMeS)][Ala(pyrimidin-5-yl)]Q[Dab]G[dPro(4R-(4-pyridylmethyl))])) |
| 0.024 | C[C@@H](c1c[nH]c2cccc(F)c12)[C@@H]1NC(=O)[C@@H]2C[C@H](F)CN2C(=O)CNC(=O)[C@H](Cc2ccc(C(=O)O)cc2)NC(=O)[C@H](Cc2ccncc2)NC(=O)[C@H](Cc2ccc(-c3ccc(C(=O)O)cc3)cc2)NC(=O)[C@H]2C[C@@H](Cc3ccncc3)CN2C(=O)CNC(=O)[C@H](CCCN)NC(=O)[C@H](CCC(N)=O)NC(=O)[C@H](Cc2cncnc2)NC(=O)C(C)(C)NC(=O)[C@H](Cc2c[nH]c3ccccc23)NC(=O)[C@H](CO)NC(=O)C(C)(C)NC1=O [Example 108] (cyclo([Bip(4'-COOH)][4Pal][Phe(4-COOH)]G[Pro(cis-4-F)][Trp(βS-Me,4-F)][Aib]SW[Aib][Ala(pyrimidin-5-yl)]Q[Orn]G[dPro(4R-(4-pyridylmethyl))])) |
| 0.021 | CC(=O)NCCOc1ccc(C[C@@H]2NC(=O)[C@H]3C[C@@H](Cc4ccncc4)CN3C(=O)CNC(=O)[C@H](CCN)NC(=O)[C@H](CCC(N)=O)NC(=O)[C@H](CC3CCOCC3)NC(=O)[C@@](C)(CC(=O)O)NC(=O)[C@H](Cc3c[nH]c4ccccc34)NC(=O)[C@H](CO)NC(=O)C(C)(C)NC(=O)[C@H]([C@@H](C)c3cccc4ccccc34)NC(=O)[C@@H]3C[C@H](F)CN3C(=O)CNC(=O)[C@H](Cc3ccc(C(=O)O)cc3Cl)NC(=O)[C@H](Cc3ccncc3)NC2=O)cc1 [Example 363] (cyclo([AEF](Ac)[4Pal][Phe(2-Cl,4-COOH)]G[Pro(cis-4-F)][1Nal(3S-Me)][Aib]SW[d(αMeD)][Ala(4-THP)]Q[Dab]G[dPro(4R-(4-pyridylmethyl))])) |
| 0.013 | C[C@@H](c1c[nH]c2cccc(F)c12)[C@@H]1NC(=O)[C@@H]2C[C@H](F)CN2C(=O)CNC(=O)[C@H](Cc2ccc(C(=O)O)cc2)NC(=O)[C@H](Cc2ccncc2)NC(=O)[C@H](Cc2ccc(OCCNC(=O)c3ccccc3)cc2)NC(=O)[C@H]2C[C@@H](Cc3ccncc3)CN2C(=O)CNC(=O)[C@H](CCN)NC(=O)[C@H](CCC(N)=O)NC(=O)[C@H](Cc2cncnc2)NC(=O)C(C)(C)NC(=O)[C@H](Cc2c[nH]c3ccccc23)NC(=O)[C@H](CO)NC(=O)C(C)(C)NC1=O [Example 308] (cyclo([AEF](Bz)[4Pal][Phe(4-COOH)]G[Pro(cis-4-F)][Trp(βS-Me,4-F)][Aib]SW[Aib][Ala(pyrimidin-5-yl)]Q[Dab]G[dPro(4R-(4-pyridylmethyl))])) |
| 0.025 | CC(=O)NCCOc1ccc(C[C@@H]2NC(=O)[C@H]3C[C@@H](Cc4ccncc4)CN3C(=O)CNC(=O)[C@H](CCN)NC(=O)[C@H](CCC(N)=O)NC(=O)[C@H](CCc3ccncc3)NC(=O)C(C)(C)NC(=O)[C@H](Cc3c[nH]c4ccccc34)NC(=O)[C@H](CCC(=O)O)NC(=O)C(C)(C)NC(=O)[C@H]([C@@H](C)c3c[nH]c4cccc(F)c34)NC(=O)[C@@H]3C[C@H](F)CN3C(=O)CNC(=O)[C@H](Cc3ccc(C(=O)O)cc3)NC(=O)[C@H](Cc3ccncc3)NC2=O)cc1 [Example 318] (cyclo([AEF](Ac)[4Pal][Phe(4-COOH)]G[Pro(cis-4-F)][Trp(βS-Me,4-F)][Aib]EW[Aib][h4Pal]Q[Dab]G[dPro(4R-(4-pyridylmethyl))])) |
| 0.041 | C[C@@H](c1c[nH]c2cccc(F)c12)[C@@H]1NC(=O)[C@@H]2C[C@H](F)CN2C(=O)CNC(=O)[C@H](Cc2ccc(C(=O)O)cc2)NC(=O)[C@H](CC23CC(C2)C3)NC(=O)[C@H](Cc2ccc(-c3ccc(C(=O)O)cc3)cc2)NC(=O)[C@H]2C[C@@H](Cc3ccc(F)cc3)CN2C(=O)CNC(=O)[C@H](CCN)NC(=O)[C@H](CCC(N)=O)NC(=O)[C@H](Cc2cncnc2)NC(=O)[C@@](C)(CCCCN)NC(=O)[C@H](Cc2c[nH]c3ccccc23)NC(=O)[C@H](CO)NC(=O)C(C)(C)NC1=O [Example 145] (cyclo([Bip(4'-COOH)][Ala(1-bicyclo(1.1.1)pentyl)][Phe(4-COOH)]G[Pro(cis-4-F)][Trp(βS-Me,4-F)][Aib]SW[d(αMeK)][Ala(pyrimidin-5-yl)]Q[Dab]G[dPro(4R-Bzl(4-F))])) |

Reference: US20260242419A1, “A CYCLIC PEPTIDE FOR TRAPPING INTERLEUKIN-1 BETA” (Merck Sharp & Dohme LLC, priority 2023, published 2026)
